Assay type in all cases: biochemical
Assay [1] addresses T1, Btk (Homo sapiens, UniProt Q06187). In words: Btk in vitro inhibitory activity (Method A, B or C). Details: purified from insect cells as a full-length construct containing a N-terminal 6×-His tag; His6 (N); made in house; host or cells: insect cells (baculovirus, Sf21). As to conditions: one of the methods of Example 53a, 53b, 53c. On the procedure: Btk kinase activity is determined using a time-resolved fluorescence resonance energy transfer (TR-FRET) methodology. Measurements are performed in a reaction volume of 50 μL using 96-well assay plates. Kinase enzyme, inhibitor, ATP (at the Km for the kinase), and 1 μM peptide substrate (Biotin-AVLESEEELYSSARQ-NH2 (SEQ ID NO: 1)) are incubated in a reaction buffer composed of 20 mM Tris, 50 mM NaCl, MgCl2 (5-25 mM depending on the kinase), MnCl2 (0-10 mM), 1 mM DTT, 0.1 mM EDTA, 0.01% bovine serum albumin, 0.005% Tween-20, and 10% DMSO at pH 7.4 for one hour. The reaction is quenched by the addition of 1.2 equivalents of EDTA (relative to divalent cation) in 25 μL of 1× Lance buffer (Perkin-Elmer). Streptavidin-APC (Perkin-Elmer) and Eu-labeled p-Tyr100 antibody (Perkin-Elmer) in 1× Lance buffer are added in a 25 μL volume to give final concentrations of 100 nM and 2.5 nM, respectively, and the mixture is allowed to incubate for one hour. The TR-FRET signal is measured on a multimode plate reader with an excitation wavelength (λEx) of 330 nm and detection wavelengths (λEm) of 615 and 665 nm. Activity is determined by the ratio of the fluorescence at 665 nm to that at 615 nm. For each compound, enzyme activity is measured at various concentrations of compound. Negative control reactions are performed in the absence of inhibitor in replicates of six, and two no-enzyme controls are used to determine baseline fluorescence levels. Inhibition constants, Ki(app), ware obtained using the program BatchKi (Kuzmic et al. (2000), Anal. Biochem. 286:45-50). IC50s are obtained according to the equation: IC50={Ki(app)/1+[ATP]/Km^ATP)}+[E]total/2;
For all kinases, [ATP]=Km^ATP, [Btk]total=0.5 nM and [Lck]total=6 nM.
Kinase activity is measured in vitro using electrophoretic mobility shift assay. The kinase reactions are assembled in a total volume of 25 μL in 384 well plates. The reactions comprise: BTK enzyme (1 nM, N-terminal His6-tagged, recombinant, full-length, human BTK purified from baculovirus Sf21 insect cell system), inhibitor, ATP (16 μM, the apparent Km for the kinase), fluorescently labeled peptide substrate (1 μM, FAM-GEEPLYWSFPAKKK-NH2 (SEQ ID NO: 2)) in a reaction buffer composed of 100 mM HEPES, pH7.5, 5 mM MgCl2 1 mM DTT, 0.1% bovine serum albumin, 0.01% Triton X-100, and 1% DMSO. The reaction is incubated for one hour and is quenched by the addition of 45 μL of termination buffer (100 mM HEPES, pH7.5, 0.01% Triton X-100, 30 mM EDTA). The terminated reactions are analyzed using 12 channel LabChip® 3000 microfluidic detection instrument (Caliper Life Sciences). The enzymatic phosphorylation of the peptide results in a change in net charge, enabling electrophoretic separation of product from substrate peptide. As substrate and product peptides are separated, two peaks of fluorescence are observed. Change in the relative fluorescence intensity of the substrate and product peaks is the parameter measured, reflecting enzyme activity. In the presence of an inhibitor, the ratio between product and substrate is altered: the signal of the product decreases, while the signal of the substrate increases.
Activity in each sample is determined as the product to sum ratio (PSR):P/(S+P), where P is the peak height of the product peptide and S is the peak height of the substrate peptide. For each compound, enzyme activity is measured at various concentrations (12 concentrations of compound spaced by 3× dilution intervals). Negative control samples (0%−inhibition in the absence of inhibitor) and positive control samples (100%−inhibition, in the presence of 20 mM EDTA) are assembled in replicates of four and are used to calculate %−inhibition values for each inhibitor at each concentration. Percent inhibition (Pinh) is determined using following equation: […]

For the next assay, the target named is T2, JAK3 (Homo sapiens, UniProt P52333).
T2 sequence (P52333 1-1124): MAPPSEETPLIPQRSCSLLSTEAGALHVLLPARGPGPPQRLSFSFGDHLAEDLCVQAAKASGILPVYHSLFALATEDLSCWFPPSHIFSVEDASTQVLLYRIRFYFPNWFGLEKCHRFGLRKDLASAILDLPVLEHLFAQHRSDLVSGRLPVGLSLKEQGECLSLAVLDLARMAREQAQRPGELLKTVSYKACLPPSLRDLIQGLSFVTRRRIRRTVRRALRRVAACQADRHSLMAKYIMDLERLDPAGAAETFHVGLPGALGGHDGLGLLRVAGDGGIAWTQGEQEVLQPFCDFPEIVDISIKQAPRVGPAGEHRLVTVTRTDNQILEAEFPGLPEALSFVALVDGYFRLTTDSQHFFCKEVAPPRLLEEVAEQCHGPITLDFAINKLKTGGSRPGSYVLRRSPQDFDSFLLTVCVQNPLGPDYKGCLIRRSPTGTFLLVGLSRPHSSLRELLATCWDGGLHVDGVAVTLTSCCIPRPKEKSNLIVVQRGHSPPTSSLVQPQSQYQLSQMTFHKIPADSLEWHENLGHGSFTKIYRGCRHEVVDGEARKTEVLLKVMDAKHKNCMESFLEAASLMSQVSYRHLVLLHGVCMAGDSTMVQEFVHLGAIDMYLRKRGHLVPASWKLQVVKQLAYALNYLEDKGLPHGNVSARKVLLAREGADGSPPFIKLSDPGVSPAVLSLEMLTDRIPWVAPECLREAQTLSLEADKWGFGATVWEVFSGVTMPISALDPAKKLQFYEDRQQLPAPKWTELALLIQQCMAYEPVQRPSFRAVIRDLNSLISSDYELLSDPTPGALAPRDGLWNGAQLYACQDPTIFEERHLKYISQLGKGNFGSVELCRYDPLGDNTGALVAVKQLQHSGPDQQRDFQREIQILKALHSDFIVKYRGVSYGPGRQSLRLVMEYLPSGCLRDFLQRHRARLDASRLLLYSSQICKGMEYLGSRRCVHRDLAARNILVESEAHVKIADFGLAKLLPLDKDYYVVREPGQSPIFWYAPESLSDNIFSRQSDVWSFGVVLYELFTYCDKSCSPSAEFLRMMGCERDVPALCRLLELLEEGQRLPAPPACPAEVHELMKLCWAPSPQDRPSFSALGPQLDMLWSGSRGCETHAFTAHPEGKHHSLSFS
As to the kind of experiment: Inhibition of a panel of kinases: JAK3. As to conditions: kinase panel, Table 2. On the procedure:
(§1) The degree of inhibition of a panel of kinases is determined using assays similar to the kinase assay described in Example 53.

Assay [2] concerns the target T1, Btk. In words: Inhibition of a panel of kinases: Btk. As to conditions: kinase panel, Table 2. On the procedure: as §1
In the next assay the target is LCK (Homo sapiens, UniProt P06239). In words: Inhibition of a panel of kinases: LCK. As to conditions: kinase panel, Table 2. On the procedure:
as §1

A further assay concerns the target EGFR (Homo sapiens, UniProt P00533). In words: Inhibition of a panel of kinases: EGFR. As to conditions: kinase panel, Table 2. On the procedure:
as §1

In general, IC50 refers to the concentration that gives 50% inhibition.

T1 sequence (Q06187 whole entry): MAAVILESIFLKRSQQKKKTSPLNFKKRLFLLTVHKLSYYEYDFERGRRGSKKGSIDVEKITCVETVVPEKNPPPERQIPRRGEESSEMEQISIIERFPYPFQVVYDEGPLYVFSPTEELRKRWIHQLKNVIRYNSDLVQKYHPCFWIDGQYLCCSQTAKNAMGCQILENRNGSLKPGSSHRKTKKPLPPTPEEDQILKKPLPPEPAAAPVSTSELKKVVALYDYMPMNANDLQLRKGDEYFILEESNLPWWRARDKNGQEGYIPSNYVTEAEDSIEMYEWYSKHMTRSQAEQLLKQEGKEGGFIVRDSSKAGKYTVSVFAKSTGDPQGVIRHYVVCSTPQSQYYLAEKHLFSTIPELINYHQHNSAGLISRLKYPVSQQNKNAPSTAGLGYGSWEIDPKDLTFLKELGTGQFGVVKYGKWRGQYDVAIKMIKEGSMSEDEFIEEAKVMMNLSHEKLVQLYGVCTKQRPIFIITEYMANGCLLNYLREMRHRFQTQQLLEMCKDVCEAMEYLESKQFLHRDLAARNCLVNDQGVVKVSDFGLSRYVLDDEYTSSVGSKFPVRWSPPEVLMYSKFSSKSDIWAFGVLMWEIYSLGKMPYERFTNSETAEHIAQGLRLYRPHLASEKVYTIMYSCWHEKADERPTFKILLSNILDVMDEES
LCK, sequence (P06239 whole entry, species assumed): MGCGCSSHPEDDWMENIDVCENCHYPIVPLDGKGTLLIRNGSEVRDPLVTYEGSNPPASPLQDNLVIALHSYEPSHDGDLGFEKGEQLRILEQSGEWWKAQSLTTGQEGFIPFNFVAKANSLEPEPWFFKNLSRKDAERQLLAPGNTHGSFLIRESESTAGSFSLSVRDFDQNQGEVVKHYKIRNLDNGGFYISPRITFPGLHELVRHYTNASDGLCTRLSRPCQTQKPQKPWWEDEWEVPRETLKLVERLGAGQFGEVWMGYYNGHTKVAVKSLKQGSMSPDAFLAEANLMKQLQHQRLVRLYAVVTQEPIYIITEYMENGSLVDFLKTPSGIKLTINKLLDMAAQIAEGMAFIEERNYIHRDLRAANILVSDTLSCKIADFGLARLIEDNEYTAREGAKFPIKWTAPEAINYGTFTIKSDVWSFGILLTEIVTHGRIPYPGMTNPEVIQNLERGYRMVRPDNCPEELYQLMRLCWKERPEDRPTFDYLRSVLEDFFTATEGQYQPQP
EGFR, sequence (P00533 25-1210, species assumed): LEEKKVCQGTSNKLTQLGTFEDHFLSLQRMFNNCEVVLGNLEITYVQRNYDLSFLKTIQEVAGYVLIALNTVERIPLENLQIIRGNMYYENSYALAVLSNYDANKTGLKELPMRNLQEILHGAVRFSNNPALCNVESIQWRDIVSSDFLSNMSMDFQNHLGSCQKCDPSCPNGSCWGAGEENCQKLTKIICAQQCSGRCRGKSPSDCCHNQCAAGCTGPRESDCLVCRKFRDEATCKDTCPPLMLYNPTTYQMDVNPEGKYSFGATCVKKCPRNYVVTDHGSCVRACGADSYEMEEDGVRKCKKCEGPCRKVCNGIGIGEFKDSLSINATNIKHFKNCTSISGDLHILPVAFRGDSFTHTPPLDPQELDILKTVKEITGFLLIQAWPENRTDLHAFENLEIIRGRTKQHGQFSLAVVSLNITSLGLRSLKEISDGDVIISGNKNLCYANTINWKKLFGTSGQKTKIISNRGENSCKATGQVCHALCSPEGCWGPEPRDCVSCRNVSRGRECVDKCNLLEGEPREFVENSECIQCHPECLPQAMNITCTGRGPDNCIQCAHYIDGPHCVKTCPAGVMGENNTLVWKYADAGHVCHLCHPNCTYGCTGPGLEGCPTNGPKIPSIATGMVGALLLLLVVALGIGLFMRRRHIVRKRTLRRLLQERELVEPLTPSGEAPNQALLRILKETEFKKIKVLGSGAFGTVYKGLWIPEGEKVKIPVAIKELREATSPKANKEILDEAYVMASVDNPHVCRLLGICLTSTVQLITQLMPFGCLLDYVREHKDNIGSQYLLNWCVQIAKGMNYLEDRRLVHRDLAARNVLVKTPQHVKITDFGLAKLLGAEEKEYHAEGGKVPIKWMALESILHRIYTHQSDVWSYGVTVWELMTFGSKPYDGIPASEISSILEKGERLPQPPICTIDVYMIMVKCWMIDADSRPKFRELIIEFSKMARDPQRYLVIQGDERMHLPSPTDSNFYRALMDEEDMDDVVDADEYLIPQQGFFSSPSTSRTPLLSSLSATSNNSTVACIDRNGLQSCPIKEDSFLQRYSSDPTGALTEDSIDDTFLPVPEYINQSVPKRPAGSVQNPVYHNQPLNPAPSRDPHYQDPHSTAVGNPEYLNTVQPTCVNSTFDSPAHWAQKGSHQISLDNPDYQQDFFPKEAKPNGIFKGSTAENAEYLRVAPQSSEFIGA

As for `CC#CC(=O)N1CC[C@@H](n2nc(-c3ccc(C(=O)Nc4cc(C)ccn4)cc3)c3c(N)ncnc32)C1` [Compound ID 2, (R)-4-(4-amino-1-(1-but-2-ynoylpyrrolidin-3-yl)-1H-pyrazolo[3,4-d]pyrimidin-3-yl)-N-(4-methylpyridin-2-yl)benzamide], the IC50 was at most 10 nM against Btk [1]; above 1000 nM at JAK3; at most 10 nM against Btk [2]; 100 to 1000 nM against LCK; above 1000 nM at EGFR.

For the compound `CC#CC(=O)N1CC[C@@H](n2nc(-c3ccc(C(=O)Nc4cc(C(F)(F)F)ccn4)cc3)c3c(N)ncnc32)C1` [Compound ID 1, (R)-4-(4-amino-1-(1-but-2-ynoylpyrrolidin-3-yl)-1H-pyrazolo[3,4-d]pyrimidin-3-yl)-N-(4-(trifluoromethyl)pyridin-2-yl)benzamide], the IC50 at Btk [1] was at most 10 nM; at JAK3, above 1000 nM; against Btk [2], at most 10 nM; against LCK, 100 to 1000 nM; on EGFR, 100 to 1000 nM.

With `Cc1ccnc(NC(=O)c2ccc(-c3nn([C@@H]4CCN(C(=O)C#CC5CC5)C4)c4ncnc(N)c34)cc2)c1` [Compound ID 8, (R)-4-(4-amino-1-(1-(3-cyclopropylpropioloyl)pyrrolidin-3-yl)-1H-pyrazolo[3,4-d]pyrimidin-3-yl)-N-(4-methylpyridin-2-yl)benzamide], the IC50 against Btk [1] was at most 10 nM; against JAK3, above 1000 nM; against Btk [2], at most 10 nM; at LCK, above 1000 nM; against EGFR, 100 to 1000 nM.

For the compound `CC#CC(=O)N1CCC[C@@H](n2nc(-c3ccc(C(=O)Nc4cc(C(C)C)ccn4)cc3)c3c(N)ncnc32)C1` [Compound ID 6, (R)-4-(4-amino-1-(1-but-2-ynoylpiperidin-3-yl)-1H-pyrazolo[3,4-d]pyrimidin-3-yl)-N-(4-isopropylpyridin-2-yl)benzamide], the IC50 against Btk [1] is at most 10 nM; at JAK3, above 1000 nM; at Btk [2] it was at most 10 nM; against LCK it was 100 to 1000 nM; at EGFR, above 1000 nM.

For `CC#CC(=O)N1CC[C@@H](n2nc(-c3ccc(C(=O)Nc4cc(C(C)C)ccn4)cc3)c3c(N)ncnc32)C1` [Compound ID 4, (R)-4-(4-amino-1-(1-but-2-ynoylpyrrolidin-3-yl)-1H-pyrazolo[3,4-d]pyrimidin-3-yl)-N-(4-isopropylpyridin-2-yl)benzamide], the IC50 is at most 10 nM against Btk [1]; above 1000 nM at JAK3; at most 10 nM at Btk [2]; 100 to 1000 nM against LCK; above 1000 nM on EGFR.

Regarding `CC#CC(=O)N1CC[C@@H](n2nc(-c3ccc(C(=O)Nc4cc(C#N)ccn4)cc3)c3c(N)ncnc32)C1` [Compound ID 5, (R)-4-(4-amino-1-(1-but-2-ynoylpyrrolidin-3-yl)-1H-pyrazolo[3,4-d]pyrimidin-3-yl)-N-(4-cyanopyridin-2-yl)benzamide], the half-maximal inhibitory concentration (IC50) against Btk [1] was at most 10 nM; against JAK3, above 1000 nM; against Btk [2] it was at most 10 nM; at LCK, 100 to 1000 nM; on EGFR it was above 1000 nM.

For `CC#CC(=O)N1CC[C@@H](n2nc(-c3ccc(C(=O)Nc4cc(CCC)ccn4)cc3)c3c(N)ncnc32)C1` [Compound ID 9, (R)-4-(4-amino-1-(1-but-2-ynoylpyrrolidin-3-yl)-1H-pyrazolo[3,4-d]pyrimidin-3-yl)-N-(4-propylpyridin-2-yl)benzamide], the IC50 is at most 10 nM against Btk [1], at most 10 nM at Btk [2], 100 to 1000 nM against LCK and at most 10 nM against EGFR.

For the compound `CC#CC(=O)N1CCC[C@@H](n2nc(-c3ccc(C(=O)Nc4ncc(C)s4)cc3)c3c(N)ncnc32)C1` [Compound ID 17, (R)-4-(4-amino-1-(1-but-2-ynoylpiperidin-3-yl)-1H-pyrazolo[3,4-d]pyrimidin-3-yl)-N-(5-methylthiazol-2-yl)benzamide], the IC50 on Btk [1] is at most 10 nM; against Btk [2] it was at most 10 nM; at LCK it was 100 to 1000 nM; against EGFR, at most 10 nM.

For the compound `C=CC(=O)N1CC[C@@H](n2nc(-c3ccc(C(=O)Nc4ccccn4)cc3)c3c(N)ncnc32)C1` [Compound ID 22, (R)-4-(1-(1-acryloylpyrrolidin-3-yl)-4-amino-1H-pyrazolo[3,4-d]pyrimidin-3-yl)-N-(pyridin-2-yl)benzamide], the IC50 was at most 10 nM at Btk [1], at most 10 nM on Btk [2], 100 to 1000 nM at LCK and at most 10 nM on EGFR.

Turning to `CC#CC(=O)N1CCC[C@@H](n2nc(-c3ccc(C(=O)Nc4nccs4)cc3)c3c(N)ncnc32)C1` [Compound ID 16, (R)-4-(4-amino-1-(1-but-2-ynoylpiperidin-3-yl)-1H-pyrazolo[3,4-d]pyrimidin-3-yl)-N-(thiazol-2-yl)benzamide], the IC50 was at most 10 nM on Btk [1], at most 10 nM at Btk [2], 10 to 100 nM at LCK and 10 to 100 nM at EGFR.

(Values after patent publication US9533991B2, “Inhibitors of Bruton's tyrosine kinase” (PHARMACYCLICS LLC, priority 2014, dated 2017).)
